Data published in ChEMBL document CHEMBL5247656, “Discovery of a Potent, Cooperative, and Selective SOS1 PROTAC ZZ151 with In Vivo Antitumor Efficacy in KRAS-Mutant Cancers” (J Med Chem, 2023).
Calls of active or inactive are those of the source. No cut-off for these calls is given here.

Legend:
[1] = Acute toxicity in BALB/c mouse assessed as body weight loss at 12.5 to 100 mg/kg, ip administered once daily for 7 days; assay type: organism-based; conditions: in vivo, 168 h, dose 12.5-100 mg/kg, time 7 day
[2] = target: T1, von Hippel-Lindau disease tumor suppressor/Son of sevenless homolog 1 (Homo sapiens) (UniProt Q07889+P40337); assay: PROTAC activity at VHL/SOS1 in human Lovo cells harboring KRAS G13D mutant assessed as induction of SOS1 degradation by measuring maximal efficacy at 1 to 2000 nM incubated for 24 hrs by Immunoblot analysis relative to control; assay type: cell-based; conditions: dose 1-2000 nM
T1 sequence (P40337 whole entry, looked up, one chain of several): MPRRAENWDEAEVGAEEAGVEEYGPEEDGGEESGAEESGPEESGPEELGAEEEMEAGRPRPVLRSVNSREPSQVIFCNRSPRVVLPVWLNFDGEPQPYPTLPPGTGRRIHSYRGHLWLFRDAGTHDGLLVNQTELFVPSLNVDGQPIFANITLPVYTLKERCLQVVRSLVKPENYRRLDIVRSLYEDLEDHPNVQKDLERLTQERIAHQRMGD

[3] = target: T1, von Hippel-Lindau disease tumor suppressor/Son of sevenless homolog 1 (Homo sapiens); assay: PROTAC activity at VHL/SOS1 in human ASPC1 cells harboring KRAS G12D mutant assessed as induction of SOS1 degradation at 1 uM preincubated with (R)-1-(4-(4-((1-(3-amino-5-(trifluoromethyl)phenyl)ethyl)amino)-7-methoxy-2-methylquinazolin-6-yl)piperidin-1-yl)ethanone for 4 hrs followed by compound treatment and measured after 24 hrs by immunoblot analysis; assay type: cell-based
[4] = target: T1, von Hippel-Lindau disease tumor suppressor/Son of sevenless homolog 1 (Homo sapiens); assay: PROTAC activity at VHL/SOS1 in human SK-CO-1 cells harboring G12V mutant assessed as induction of SOS1 degradation by measuring maximal efficacy at 1 to 2000 nM incubated for 24 hrs by Immunoblot analysis relative to control; assay type: cell-based; conditions: dose 1-2000 nM
[5] = target: T1, von Hippel-Lindau disease tumor suppressor/Son of sevenless homolog 1 (Homo sapiens); assay: PROTAC activity at VHL/SOS1 in human NCI-H358 cells assessed as induction of SOS1 protein degradation at 0.1 uM incubated for 24 hrs by Immunoblot analysis relative to control; assay type: cell-based
[6] = target: T2, Son of sevenless homolog 1 (Homo sapiens, UniProt Q07889); assay: Binding affinity to GST-tagged human SOS1 (564 to 1049 residues) expressed in Escherichia coli BL21 (DE3) cells assessed as binary complex formation by measuring dissociation constant incubated for 15 mins by fluorescence polarization-based displacement assay
T2 sequence (Q07889 whole entry): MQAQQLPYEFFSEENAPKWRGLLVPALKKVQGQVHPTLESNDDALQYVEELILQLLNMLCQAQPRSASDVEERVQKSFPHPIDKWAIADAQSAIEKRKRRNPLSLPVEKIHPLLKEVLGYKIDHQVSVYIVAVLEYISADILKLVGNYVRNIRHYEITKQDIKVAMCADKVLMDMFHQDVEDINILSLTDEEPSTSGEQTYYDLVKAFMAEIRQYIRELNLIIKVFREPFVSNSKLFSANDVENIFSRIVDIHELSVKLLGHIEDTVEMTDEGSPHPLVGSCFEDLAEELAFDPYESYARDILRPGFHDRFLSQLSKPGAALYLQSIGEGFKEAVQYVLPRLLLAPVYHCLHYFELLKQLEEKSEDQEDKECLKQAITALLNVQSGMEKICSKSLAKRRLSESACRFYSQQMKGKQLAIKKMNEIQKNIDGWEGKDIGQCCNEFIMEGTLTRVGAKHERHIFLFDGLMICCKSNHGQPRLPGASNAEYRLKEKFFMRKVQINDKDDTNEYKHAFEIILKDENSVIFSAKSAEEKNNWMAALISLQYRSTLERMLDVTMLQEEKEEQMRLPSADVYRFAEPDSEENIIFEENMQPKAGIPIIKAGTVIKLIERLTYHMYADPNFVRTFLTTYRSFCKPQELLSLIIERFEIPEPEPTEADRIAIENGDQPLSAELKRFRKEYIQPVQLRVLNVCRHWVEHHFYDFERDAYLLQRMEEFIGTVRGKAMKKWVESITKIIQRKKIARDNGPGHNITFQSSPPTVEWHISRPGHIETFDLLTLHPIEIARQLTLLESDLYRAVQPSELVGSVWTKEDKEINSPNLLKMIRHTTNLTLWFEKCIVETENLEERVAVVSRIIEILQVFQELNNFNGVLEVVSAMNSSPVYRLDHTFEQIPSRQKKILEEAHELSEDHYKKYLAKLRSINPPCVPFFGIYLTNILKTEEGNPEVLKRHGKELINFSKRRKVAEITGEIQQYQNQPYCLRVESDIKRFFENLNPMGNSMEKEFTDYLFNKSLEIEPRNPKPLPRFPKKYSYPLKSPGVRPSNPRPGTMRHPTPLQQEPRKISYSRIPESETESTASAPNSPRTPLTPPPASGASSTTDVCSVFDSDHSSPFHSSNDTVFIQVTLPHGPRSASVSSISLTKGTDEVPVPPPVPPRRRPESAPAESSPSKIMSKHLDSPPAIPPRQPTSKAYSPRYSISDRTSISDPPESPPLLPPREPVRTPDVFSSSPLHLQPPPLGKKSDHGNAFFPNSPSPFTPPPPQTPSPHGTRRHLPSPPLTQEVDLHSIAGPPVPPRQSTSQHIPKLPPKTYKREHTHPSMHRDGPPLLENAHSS

[7] = target: T1, von Hippel-Lindau disease tumor suppressor/Son of sevenless homolog 1 (Homo sapiens); assay: PROTAC activity at VHL/SOS1 in human MIA PaCa-2 cells harboring KRAS G12C mutant assessed as induction of SOS1 degradation by measuring maximal efficacy at 1 to 2000 nM incubated for 24 hrs by Immunoblot analysis relative to control; assay type: cell-based; conditions: dose 1-2000 nM
[8] = target: T1, von Hippel-Lindau disease tumor suppressor/Son of sevenless homolog 1 (Homo sapiens); assay: PROTAC activity at VHL/SOS1 in human NCI-H358 cells harboring KRAS G12C mutant assessed as induction of SOS1 degradation at 1 uM preincubated with MG132 for 4 hrs followed by compound treatment and measured after 24 hrs by Immunoblot analysis; assay type: cell-based
[9] = target: T1, von Hippel-Lindau disease tumor suppressor/Son of sevenless homolog 1 (Homo sapiens); assay: In vivo PROTAC activity at VHL/SOS1 in human SW620 cells harboring KRAS G12V mutant xenografted BALB/c nude mouse assessed as induction of SOS1 degradation in tumor at 10 to 20 mg/kg, ip administered once daily for 2 weeks by immunohistochemistry analysis; assay type: functional, organism-based; conditions: SW-620, dose 10-20 mg/kg
[10] = target: von Hippel-Lindau disease tumor suppressor/Son of sevenless homolog 1 (Homo sapiens, UniProt P40337+Q07889, Q61H); assay: PROTAC activity at VHL/SOS1 in human NCI-H460 cells harboring KRAS Q61H mutant assessed as induction of SOS1 degradation incubated for 24 hrs by Immunoblot analysis; assay type: cell-based
[11] = target: T1, von Hippel-Lindau disease tumor suppressor/Son of sevenless homolog 1 (Homo sapiens); assay: In vivo PROTAC activity at VHL/SOS1 in human ASPC1 cells harboring KRAS G12D mutant xenografted BALB/c nude mouse assessed as induction of SOS1 degradation administered intraperitoneally once daily for 3 weeks by immunohistochemistry analysis; assay type: functional; conditions: dose 10-20 mg/kg, route ip
[12] = target: T1, von Hippel-Lindau disease tumor suppressor/Son of sevenless homolog 1 (Homo sapiens); assay: PROTAC activity at VHL/SOS1 in human UMUC3 cells harboring KRAS G12C mutant assessed as induction of SOS1 degradation by measuring maximal efficacy at 1 to 2000 nM incubated for 24 hrs by Immunoblot analysis relative to control; assay type: cell-based; conditions: dose 1-2000 nM
[13] = target: von Hippel-Lindau disease tumor suppressor/Son of sevenless homolog 1 (Homo sapiens, UniProt P40337+Q07889, G12C); assay: PROTAC activity at VHL/SOS1 in human MIA PaCa-2 cells harboring KRAS G12C mutant assessed as induction of SOS1 degradation incubated for 24 hrs by Immunoblot analysis; assay type: cell-based; conditions: pooled result: one value given for 16 cell lines, strains, targets or settings
Sequence of von Hippel-Lindau disease tumor suppressor/Son of sevenless homolog 1 (Homo sapiens, UniProt P40337+Q07889, G12C) (P40337 whole entry, looked up, stated change not applied, one chain of several): as the sequence (P40337 whole entry, looked up, one chain of several) above

[14] = target: T1, von Hippel-Lindau disease tumor suppressor/Son of sevenless homolog 1 (Homo sapiens); assay: PROTAC activity at VHL/SOS1 in human NCI-H460 cells harboring KRAS Q61H mutant assessed as induction of SOS1 degradation by measuring maximal efficacy at 1 to 2000 nM incubated for 24 hrs by Immunoblot analysis relative to control; assay type: cell-based; conditions: dose 1-2000 nM

For COc1cc2nc(C)nc(N[C@H](C)c3cc(N)cc(C(F)(F)F)c3)c2cc1C1CCN(C(=O)CCCCCC(=O)N[C@H](C(=O)N2C[C@H](O)C[C@H]2C(=O)N[C@@H](C)c2ccc(-c3scnc3C)cc2)C(C)(C)C)CC1, which Activity [1] is on record?
The Activity was “Non-Toxic”.

And the Emax [2]?
The Emax was > 95%.

What about the Activity [3] of the same compound?
Its Activity is “inactive”.

What about the Emax [4] of the same compound?
The Emax was > 95%.

What about the Activity [5] of the same compound?
The Activity was 83.9%.

And the Kd [6]?
Its Kd is 93 nM.

What about the Emax [7] of the same compound?
The Emax was > 95%.

What about the Activity [8] of the same compound?
The Activity was “inactive”.

And the Activity [9]?
The Activity was “Active”.

And the EC50 [10]?
The EC50 was 81.7 nM.

And the Activity [11]?
Its Activity is “Dose-Dependent Effect”.

And the Emax [12]?
Its Emax is > 95%.

And the EC50 [13]?
Its EC50 is 8.41 nM.

And the Emax [14]?
The Emax was > 95%.
